Reference: US5118681A (priority 1989, dated 1992)

Experiments:
A.n = test: Minimum Inhibitory Concentration Test, alternate (Table 4), A.n; type: cell-based, Aspergillus niger; settings: TSB, 72 hours
Summary of the method: (§1)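 Compound in acetone was diluted into TSB and serially diluted 1:1 from 250 ppm down to 0.8 ppm, in duplicate. Plates were inoculated with diluted 24 h culture and incubated 3 days at 30° C; MIC recorded as lowest concentration with no growth.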

[1] = test system: Pellicularia filamentosa (f. sp. sasiki); test: whole plant or invertebrate; type: in vivo; settings: in vivo
[2] = test system: Erysiphe graminis (f. sp. tritici); test: whole plant or invertebrate; type: in vivo; settings: in vivo
Pseudomonas fluorescens [3] = test: Speed of Kill Test, alternate, 24 h, synthetic hard water (Table 4); type: cell-based; settings: Ps.fl in synthetic hard water, 100 ppm
Piricularia oryzae = test: whole plant or invertebrate; type: in vivo; settings: in vivo
Phytophthora infestans = test: whole plant or invertebrate; type: in vivo
[4] = test system: Pseudoperonospora cubensis; test: whole plant or invertebrate; type: in vivo; settings: in vivo
Pseudomonas fluorescens [5] = test: Minimum Inhibitory Concentration Test, alternate (Table 4), Ps.fl; type: cell-based; settings: TSB, 72 hours, 30° C
Summary of the method: as §1

[6] = test system: Puccinia recondita (f. sp. tritici Races PKB and PLD); test: whole plant or invertebrate; type: in vivo; settings: in vivo
Candida albicans (C.alb) = test: Minimum Inhibitory Concentration Test, alternate (Table 4), C.alb; type: cell-based; settings: TSB, 72 hours
Protocol: (§2) A 125 μl aliquot of 10,000 ppm test compound in acetone was added to 4.88 ml of TSB to provide a 250 ppm solution. From this solution, 100 μL was transferred to the first row of two microtiter plate columns. Both replicates and five additional compounds were all serially diluted 1:1 to a final concentration of 0.8 ppm in TSB.
(§3) Inoculation was accomplished by diluting a 24 hr Ps fl culture, four mls per 36 mls of phosphate buffer solution. A Dynatech autoinoculator was used to transfer 1.5 μl of this cell suspension to the microtiter plates. The plates were incubated at 30° C. for 3 days before the lowest concentration at which no growth occurs was recorded in the database. The SOK data and MIC test data on Ps.fl, Ps.ae, E.c, and S.a. bacteria and Candida albicans (C.alb), A.n and A.p fungi are listed in Table 4.

S.a = test: Minimum Inhibitory Concentration Test, alternate (Table 4), S.a; type: cell-based, Staphylococcus aureus; settings: TSB, 72 hours
Protocol: as §2, §3

E.c = test: Minimum Inhibitory Concentration Test, alternate (Table 4), E.c; type: cell-based, Escherichia coli; settings: TSB, 72 hours
Protocol: as §2, §3

Ps.ae = test: Minimum Inhibitory Concentration Test, alternate (Table 4), Ps.ae; type: cell-based, Pseudomonas aerugenosa; settings: TSB, 72 hours

Row | Substance | MIC A.n (A.n) | % control RSB [1] | % control WPM [2] | SOK (Pseudomonas fluorescens [3]) | % control RB (Piricularia oryzae) | % control TLB (Phytophthora infestans; 100 ppm application rate) | % control CDM [4] | MIC Ps.fl (Pseudomonas fluorescens [5]) | % control WLR [6] | MIC C.alb (Candida albicans (C.alb)) | MIC S.a (S.a) | % control TLB (Phytophthora infestans; 200 ppm application rate) | MIC E.c (E.c) | MIC Ps.ae (Ps.ae)
1 | N-n-octyl-cis-3-[2-(N-benzyl-N'-n-octylmalonodiamido)thio]acrylamide [Example 61] | > 250 ppm | 0% | 0% | > 100 ppm | 0% | 0% | 99% | > 250 ppm | 0% | – | – | – | – | –
2 | N-n-octyl-cis-3-{2-[ethyl-N-(2-thiophenylmethyl)malonamido]thio}acrylamide [Example 28] | 16-31 ppm | 0% | 0% | > 100 ppm | 25% | – | 96% | 500 ppm | – | 63 ppm | 500 ppm | 50% | 500 ppm | 500 ppm
